Assay results published in US10851067B2, “Kv7 channel activators compositions and methods of use” (Knopp Biosciences LLC, priority 2018, dated 2020).

Target: Kv7.2/7.3 (Homo sapiens, UniProt O43525+O43526)
Experiment: Kv7.2/7.3 Activation Assay, QPatch single concentration screen
Assay type: cell-based
Design: host or cells: HEK cells, tetracycline-inducible expression; key: 1.2-2.9 (+); 3-3.9 (++); >4 (+++) fold increase over baseline; O represents open channel at holding potential
Conditions: Kv7.2/Kv7.3 co-expressing HEK cells, compound concentration 3 μM, steady-state current at end of 2 s pulse to −30 mV
Procedure, shortened: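 Tetracycline-induced HEK cells expressing human Kv7.2/7.3, recorded 24 h post-induction by automated planar patch clamp. From −80 mV, 2 s steps to −30 mV then 100 ms to −120 mV; compound tested at 3 μM (0.1% DMSO). Steady-state current at end of −30 mV step gives fold increase over baseline.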

| SMILES | Kv7.2/7.3 Activity: increase over baseline in current |
| --- | --- |
| COc1cccc2nc(NC(=O)CC(C)(O)c3ccccc3)n(C3CCC3)c12 (single isomer, unassigned) [Example 358, N-(1-cyclobutyl-7-methoxy-1H-benzo[d]imidazol-2-yl)-3-hydroxy-3-phenylbutanamide] | + (1.2-2.9 (+)) |
| COc1ccc2nc(NC(=O)CC(C)(C)C)n(C3CCC3)c2c1F [Example 429, N-(1-cyclobutyl-7-fluoro-6-methoxy-1H-benzo[d]imidazol-2-yl)-3,3-dimethylbutanamide] | +++ (>4 (+++) fold increase over baseline) |
| C[C@H](C(=O)Nc1nc2ccc(C(C)(C)O)cc2n1C1CC(F)(F)C1)C(C)(C)C [Example 365, (S)-N-(1-(3,3-difluorocyclobutyl)-6-(2-hydroxypropan-2-yl)-1H-benzo[d]imidazol-2-yl)-2,3,3-trimethylbutanamide] | + (1.2-2.9 (+)) |
| COc1c(Cl)c(Cl)c(Cl)c2nc(NC(=O)CC(C)(C)C)n(C3CCC3)c12 [Example 414, 3,3-dimethyl-N-(4,5,6-trichloro-1-cyclobutyl-7-methoxy-1H-benzo[d]imidazol-2-yl)butanamide] | ++ (3-3.9 (++)) |
| CC(C)(O)c1ccc2nc(NC(=O)CC(C)(C)C3CC3)n(C34CC(C3)C4)c2c1 [Example 472, N-(1-(bicyclo[1.1.1]pentan-1-yl)-6-(2-hydroxypropan-2-yl)-1H-benzo[d]imidazol-2-yl)-3-cyclopropyl-3-methylbutanamide] | +++ (>4 (+++) fold increase over baseline) |
| COc1cccc2nc(NC(=O)CC(C)(C)C3CC3)n(C3CCC3)c12 [Example 458, N-(1-cyclobutyl-7-methoxy-1H-benzo[d]imidazol-2-yl)-3-cyclopropyl-3-methylbutanamide] | +++ (>4 (+++) fold increase over baseline) |
| CC(C)(O)c1ccc2nc(NC(=O)CC(C)(O)c3ccccc3)n(C34CC(C3)C4)c2c1 (single isomer, unassigned) [Example 335, N-(1-(bicyclo[1.1.1]pentan-1-yl)-6-(2-hydroxypropan-2-yl)-1H-benzo[d]imidazol-2-yl)-3-hydroxy-3-phenylbutanamide] | O |
| CC(C)(C)CC(=O)Nc1nc2ccc(C(C)(C)O)cc2n1C1CC(F)(F)C1 [Example 332, N-(1-(3,3-difluorocyclobutyl)-6-(2-hydroxypropan-2-yl)-1H-benzo[d]imidazol-2-yl)-3,3-dimethylbutanamide] | + (1.2-2.9 (+)) |
| CC(O)(CC(=O)Nc1nc2ccc(OC(F)F)cc2n1C(C)(C)C)c1ccccc1 (single isomer, unassigned) [Example 418, N-(1-(tert-butyl)-6-(difluoromethoxy)-1H-benzo[d]imidazol-2-yl)-3-hydroxy-3-phenylbutanamide] | ++ (3-3.9 (++)) |
| COCc1c(F)ccc2nc(NC(=O)CC(C)(C)C)n(C3CCC3)c12 [Example 394, N-(1-cyclobutyl-6-fluoro-7-(methoxymethyl)-1H-benzo[d]imidazol-2-yl)-3,3-dimethylbutanamide] | O |
| CC(C)(C)CC(=O)Nc1nc2ccc(Cl)c(C#N)c2n1C1CCC1 [Example 439, N-(6-chloro-7-cyano-1-cyclobutyl-1H-benzo[d]imidazol-2-yl)-3,3-dimethylbutanamide] | + (1.2-2.9 (+)) |
| CC(C)(C)CC(=O)Nc1nc2ccc(OC(F)F)cc2n1C(C)(C)C [Example 393, N-(1-(tert-butyl)-6-(difluoromethoxy)-1H-benzo[d]imidazol-2-yl)-3,3-dimethylbutanamide] | +++ (>4 (+++) fold increase over baseline) |

More lines, now with the values ahead:

| Kv7.2/7.3 Activity: increase over baseline in current | SMILES |
| --- | --- |
| ++ (3-3.9 (++)) | CC(O)(CC(=O)Nc1nc2ccc(C#N)cc2n1C1(C)CCC1)c1ccc(F)cc1F (single isomer, unassigned) [Example 430, N-(6-cyano-1-(1-methylcyclobutyl)-1H-benzo[d]imidazol-2-yl)-3-(2,4-difluorophenyl)-3-hydroxybutanamide] |
| ++ (3-3.9 (++)) | CC(C)(C)CC(=O)Nc1nc2ccc(OC(F)F)cc2n1C1(C)CCC1 [Example 346, N-(6-(difluoromethoxy)-1-(1-methylcyclobutyl)-1H-benzo[d]imidazol-2-yl)-3,3-dimethylbutanamide] |
| ++ (3-3.9 (++)) | CC(C)(C)CC(=O)Nc1nc2cccc(C#N)c2n1C1(C)CCC1 [Example 473, N-(7-cyano-1-(1-methylcyclobutyl)-1H-benzo[d]imidazol-2-yl)-3,3-dimethylbutanamide] |
| ++ (3-3.9 (++)) | CC(C)(CC(=O)Nc1nc2ccc(C#N)cc2n1C1(C)CCC1)C1CC1 [Example 379, N-(6-cyano-1-(1-methylcyclobutyl)-1H-benzo[d]imidazol-2-yl)-3-cyclopropyl-3-methylbutanamide] |
| ++ (3-3.9 (++)) | CC(O)(CC(=O)Nc1nc2ccc(OC(F)F)c(F)c2n1C1(C)CCC1)c1ccccc1 (single isomer, unassigned) [Example 374, N-(6-(difluoromethoxy)-7-fluoro-1-(1-methylcyclobutyl)-1H-benzo[d]imidazol-2-yl)-3-hydroxy-3-phenylbutanamide] |
| + (1.2-2.9 (+)) | CC1(n2c(NC(=O)CC(O)(c3ccccc3)C(F)(F)F)nc3c(F)cc(OC(F)F)cc32)CCC1 (centres unmarked) [Example 409, N-(6-(difluoromethoxy)-4-fluoro-1-(1-methylcyclobutyl)-1H-benzo[d]imidazol-2-yl)-4,4,4-trifluoro-3-hydroxy-3-phenylbutanamide] |
| ++ (3-3.9 (++)) | CC(C)(C)CC(=O)Nc1nc2ccc(OCC(F)(F)F)c(F)c2n1C1CCC1 [Example 334, N-(1-cyclobutyl-7-fluoro-6-(2,2,2-trifluoroethoxy)-1H-benzo[d]imidazol-2-yl)-3,3-dimethylbutanamide] |
| ++ (3-3.9 (++)) | CC(C)(C)CC(=O)Nc1nc2ccc(C#N)cc2n1C1(C)CCC1 [Example 337, N-(6-cyano-1-(1-methylcyclobutyl)-1H-benzo[d]imidazol-2-yl)-3,3-dimethylbutanamide] |
| ++ (3-3.9 (++)) | CC(C)(CC(=O)Nc1nc2ccc(C#N)cc2n1C(C)(C)C)C1CC1 [Example 354, N-(1-(tert-butyl)-6-cyano-1H-benzo[d]imidazol-2-yl)-3-cyclopropyl-3-methylbutanamide] |
| ++ (3-3.9 (++)) | CC(C)(CC(=O)Nc1nc2c(F)cc(O)cc2n1C1CCC1)C(F)(F)F [Example 359, N-(1-cyclobutyl-4-fluoro-6-hydroxy-1H-benzo[d]imidazol-2-yl)-4,4,4-trifluoro-3,3-dimethylbutanamide] |
| ++ (3-3.9 (++)) | CC(C)(CC(=O)Nc1nc2cc(F)c(OC(F)F)cc2n1C1(C)CCC1)C1CC1 [Example 367, 3-cyclopropyl-N-(6-(difluoromethoxy)-5-fluoro-1-(1-methylcyclobutyl)-1H-benzo[d]imidazol-2-yl)-3-methylbutanamide] |
